Measured values published in ChEMBL document CHEMBL2321853, “Novel acylethanolamide derivatives that modulate body weight through enhancement of hypothalamic pro-opiomelanocortin (POMC) and/or decreased neuropeptide Y (NPY)” (J Med Chem, 2013).
Active and inactive are the calls of the source. The calls are words filed in the database; no cut-off is given here.

Columns and labels:
Mus musculus [1] = assay: Enhancement of cognitive function in Sabra mouse at 1 mg/kg, ip administered on day 8, 12 and 43 by eight-arm maze test; assay type: functional, organism-based; set-up: dose 1 mg/kg
Mus musculus [2] = assay: Antiobesity activity in high fat diet fed C57BL/6 mouse assessed as reduction in body weight at 1 mg/kg, ip administered on day 3, 6, 8, 9, 10 measured on day 7 relative to control; assay type: functional; set-up: scale not given: the % may be the effect or the level left; details: route intraperitoneal
Mus musculus [3] = assay: Antiobesity activity in high fat diet fed C57BL/6 mouse assessed as reduction food consumption at 1 mg/kg, ip administered on day 3, 6, 8, 9, 10 measured after week 1 relative to control; assay type: functional; set-up: scale not given: the % may be the effect or the level left; details: route intraperitoneal
Mus musculus [4] = assay: Antiobesity activity in Sabra mouse assessed as reduction in body weight at 1 mg/kg, ip administered on day 0, 10, 11, 12, 24, 29 measured on day 12 relative to control; assay type: functional; set-up: scale not given: the % may be the effect or the level left; details: route intraperitoneal
Mus musculus [5] = assay: Antiobesity activity in C57BL/6 mouse assessed as weight loss at 5 mg/kg, ip administered on day 1, 4, 5, 7, 17, 15, 19 measured on day 9 relative to control; assay type: functional; details: route intraperitoneal
Mus musculus [6] = assay: Antiobesity activity in Sabra mouse assessed as change in body weight at 1 mg/kg, ip administered on day 8, 12 and 43 measured on day 36 relative to control; assay type: functional; details: route intraperitoneal
Mus musculus [7] = assay: Antiobesity activity in Sabra mouse assessed as change in body weight at 1 mg/kg, ip administered on day 8, 12 and 43 measured on day 71 relative to control; assay type: functional; details: route intraperitoneal
Mus musculus [8] = assay: Antiobesity activity in Sabra mouse assessed as change in body weight at 1 mg/kg, ip administered on day 8, 9, 10, 11, 14, 18, 24 and 32 measured on day 21 relative to control; assay type: functional; details: route intraperitoneal
Hypothalamus [9] = assay: Effect on POMC gene expression in Sabra mouse hypothalamus assessed as increase in mRNA level at 10 mg/kg, ip administered on day 6 to 10 measured on day 16 by RT-PCR analysis relative to control; assay type: functional; details: route intraperitoneal
Mus musculus [10] = assay: Antiobesity activity in C57BL/6 mouse assessed as weight loss at 5 mg/kg, ip administered on day 1, 4, 5, 7, 17, 15, 19 measured on day 12 relative to control; assay type: functional; details: route intraperitoneal
[11] = target: T1, Peroxisome proliferator-activated receptor alpha (Homo sapiens) (UniProt Q07869); assay: Binding affinity to human recombinant PPARalpha expressed in Escherichia coli at 10 uM for 16 hrs by spectrofluorimetric analysis relative to control
T1 sequence (whole entry): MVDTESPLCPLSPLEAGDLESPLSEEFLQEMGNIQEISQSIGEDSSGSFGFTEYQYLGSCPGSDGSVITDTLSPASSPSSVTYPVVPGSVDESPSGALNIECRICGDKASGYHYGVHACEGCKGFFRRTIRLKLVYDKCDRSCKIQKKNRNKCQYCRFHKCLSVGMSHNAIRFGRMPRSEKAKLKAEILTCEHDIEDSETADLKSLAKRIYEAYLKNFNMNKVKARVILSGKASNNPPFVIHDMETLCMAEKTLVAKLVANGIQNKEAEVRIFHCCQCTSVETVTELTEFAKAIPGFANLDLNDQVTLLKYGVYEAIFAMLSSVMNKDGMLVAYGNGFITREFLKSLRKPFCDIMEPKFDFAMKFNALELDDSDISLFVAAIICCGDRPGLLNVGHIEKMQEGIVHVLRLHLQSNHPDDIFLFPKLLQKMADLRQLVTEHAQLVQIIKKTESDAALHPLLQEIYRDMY

[12] = target: Cannabinoid receptor 1 (Homo sapiens) (UniProt P21554); assay: Displacement of [3H]SR141716A from human CB1 receptor expressed in rat Chem-1 cell membrane at 10 uM relative to control; assay type: cell membranes
Mus musculus [13] = assay: Antiobesity activity in Sabra mouse assessed as change in body weight at 1 mg/kg, ip administered on day 8, 9, 10, 11, 14, 18, 24 and 32 measured on day 30 relative to control; assay type: functional; details: route intraperitoneal
Mus musculus [14] = assay: Antiobesity activity in Sabra mouse assessed as reduction in body weight at 1 mg/kg, ip administered on day 0, 10, 11, 12, 24, 29 measured on day 36 relative to control; assay type: functional; set-up: scale not given: the % may be the effect or the level left; details: route intraperitoneal
Mus musculus [15] = assay: Antiobesity activity in Sabra mouse assessed as change in body weight at 1 mg/kg, ip administered on day 8, 12 and 43 measured on day 5 relative to control; assay type: functional; details: route intraperitoneal
Mus musculus [16] = assay: Antiobesity activity in C57BL/6 mouse assessed as change in triglyceride level at 5 mg/kg, ip measured on day 36 (reference value: 0.92 mg/dL); assay type: functional; details: route intraperitoneal
Hypothalamus [17] = assay: Effect on POMC gene expression in Sabra mouse hypothalamus assessed as change in mRNA level at 1 mg/kg, ip administered on day 8, 9, 10, 11, 14, 18, 24 and 32 by RT-PCR analysis relative to GAPDH; assay type: functional; details: route intraperitoneal
Mus musculus [18] = assay: Hepatotoxicity in Sabra mouse assessed as centrilobular apoptotic changes at 1 mg/kg, ip administered on day 8, 9, 10, 11, 14, 18, 24 and 32 by hematoxylin and eosin staining-based histopathological analysis; assay type: toxicity, organism-based; set-up: dose 1 mg/kg, route intraperitoneal; details: in vivo
Mus musculus [19] = assay: Antiobesity activity in high fat diet fed C57BL/6 mouse assessed as reduction food consumption at 1 mg/kg, ip administered on day 3, 6, 8, 9, 10 measured after week 2 relative to control; assay type: functional; set-up: scale not given: the % may be the effect or the level left; details: route intraperitoneal
Mus musculus [20] = assay: Antiobesity activity in Sabra mouse assessed as change in body weight at 1 mg/kg, ip administered on day 8, 12 and 43 measured on day 29 relative to control; assay type: functional; details: route intraperitoneal
Mus musculus [21] = assay: Enhancement of motor activity in Sabra mouse at 1 mg/kg, ip administered on day 6 to 10 by open field test relative to control; assay type: functional; details: route intraperitoneal
Mus musculus [22] = assay: Antiobesity activity in C57BL/6 mouse assessed as change in glucose level in blood at 5 mg/kg, ip administered on day 1, 4, 5, 7, 17, 15, 19 measured on day 15 relative to control; assay type: functional; details: route intraperitoneal
Hypothalamus [23] = assay: Effect on NPY gene expression in Sabra mouse hypothalamus assessed as change in mRNA level at 1 mg/kg, ip administered on day 8, 9, 10, 11, 14, 18, 24 and 32 by RT-PCR analysis relative to GAPDH; assay type: functional; details: route intraperitoneal
Mus musculus [24] = assay: Antiobesity activity in Sabra mouse assessed as change in body weight at 1 mg/kg, ip administered on day 8, 12 and 43 measured on day 33 relative to control; assay type: functional; details: route intraperitoneal
Mus musculus [25] = assay: Antiobesity activity in C57BL/6 mouse assessed as change in glucose level in blood at 5 mg/kg, ip administered on day 1, 4, 5, 7, 17, 15, 19 measured on day 19 relative to control; assay type: functional; details: route intraperitoneal
Mus musculus [26] = assay: Antiobesity activity in C57BL/6 mouse assessed as change in cholesterol level at 5 mg/kg, ip measured on day 36 (reference value: 86.58 mg/dL); assay type: functional; details: route intraperitoneal
Mus musculus [27] = assay: Antiobesity activity in Sabra mouse assessed as change in food consumption at 1 mg/kg, ip administered on day 8, 9, 10, 11, 14, 18, 24 and 32 measured after 4 weeks relative to control; assay type: functional; details: route intraperitoneal
Mus musculus [28] = assay: Enhancement of cognitive function in Sabra mouse at 1 mg/kg, ip administered on day 6 to 10 by eight-arm maze test; assay type: functional, organism-based; set-up: dose 1 mg/kg

Cannabinoid receptor 1 (Homo sapiens), sequence (P21554 whole entry): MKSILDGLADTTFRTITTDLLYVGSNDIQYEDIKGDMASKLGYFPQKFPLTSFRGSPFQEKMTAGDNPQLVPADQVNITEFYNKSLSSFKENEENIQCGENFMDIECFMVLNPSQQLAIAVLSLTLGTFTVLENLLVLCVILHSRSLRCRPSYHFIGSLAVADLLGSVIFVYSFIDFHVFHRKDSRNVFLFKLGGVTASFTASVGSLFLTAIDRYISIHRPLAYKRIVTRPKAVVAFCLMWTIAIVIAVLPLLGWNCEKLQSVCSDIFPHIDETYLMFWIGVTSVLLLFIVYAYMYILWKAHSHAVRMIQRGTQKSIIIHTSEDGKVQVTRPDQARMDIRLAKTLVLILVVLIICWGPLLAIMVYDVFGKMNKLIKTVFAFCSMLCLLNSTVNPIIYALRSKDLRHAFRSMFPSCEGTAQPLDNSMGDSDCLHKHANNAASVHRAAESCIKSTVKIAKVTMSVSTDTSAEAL

**Q.** Which results are given for `CCCCCCCC/C=C\CCCCCCCC(=O)N[C@H](CO)C(C)C`?
**A.** Activity (Mus musculus [1]): Active; Activity (Mus musculus [2]): -3.2%; Activity (Mus musculus [3]): 22%; Activity (Mus musculus [4]): -1.79%; Activity (Mus musculus [5]): -3%; Activity (Mus musculus [6]): -6.9%; Activity (Mus musculus [7]): -11.4%; Activity (Mus musculus [8]): -2.4%; Activity (Hypothalamus [9]): 90%; Activity (Mus musculus [10]): -5.6%; Activity [11]: 2%; inhibition [12]: 35%; Activity (Mus musculus [13]): -5.2%; Activity (Mus musculus [14]): -5.49%; Activity (Mus musculus [15]): 1.8%; Activity (Mus musculus [16]): 1.017 mg/dL; Activity (Hypothalamus [17]): 36%; Activity (Mus musculus [18]): Non-toxic; Activity (Mus musculus [19]): 45%; Activity (Mus musculus [20]): -4.9%; Activity (Mus musculus [21]): 20%; Activity (Mus musculus [22]): -16.3%; Activity (Hypothalamus [23]): -11%; Activity (Mus musculus [24]): -5.2%; Activity (Mus musculus [25]): -21.6%; Activity (Mus musculus [26]): 83.01 mg/dL; Activity (Mus musculus [27]): 90.3%; Activity (Mus musculus [28]): Active
